Format in all cases: biochemical
The target in test [1] is T1, human JAK2 (a.a. 828-1132) catalytic domain (Homo sapiens, UniProt O60674).
T1 construct: human JAK1 (a.a. 837-1142) and JAK2 (a.a. 828-1132); His tag (N); made in house; host or cells: insect cells (baculovirus)
Put plainly: In vitro JAK kinase assay (HTRF, phosphorylation of a biotinylated peptide), JAK2. Conditions: 1 mM ATP. How it is done:
(§1) Compounds herein were tested for inhibitory activity of JAK targets according to the following in vitro assay described in Park et al., Analytical Biochemistry 1999, 269, 94-104. The catalytic domains of human JAK1 (a.a. 837-1142) and JAK2 (a.a. 828-1132) with an N-terminal His tag were expressed using baculovirus in insect cells and purified. The catalytic activity of JAK1 and JAK2 was assayed by measuring the phosphorylation of a biotinylated peptide. The phosphorylated peptide was detected by homogenous time resolved fluorescence (HTRF). IC50s of compounds were measured for each kinase in the 40 microL reactions that contain the enzyme, ATP and 500 nM peptide in 50 mM Tris (pH 7.8) buffer with 100 mM NaCl, 5 mM DTT, and 0.1 mg/mL (0.01%) BSA. For the 1 mM IC50 measurements, ATP concentration in the reactions was 1 mM. Reactions were carried out at room temperature for 1 hour and then stopped with 20 μL 45 mM EDTA, 300 nM SA-APC, 6 nM Eu-Py20 in assay buffer (Perkin Elmer, Boston, Mass.). Binding to the Europium labeled antibody took place for 40 minutes and HTRF signal was measured on a Fusion plate reader (Perkin Elmer, Boston, Mass.). See Table A for data related to compounds of the Examples (at 1 mM). Data is indicated as ranges: <20 nM (+), 20 to <150 nM (++), 150 to 500 nM (+++).
Background: Time-resolved FRET reads energy transfer from a long-lived donor to a nearby acceptor.

Test [2] has as its system human JAK1 (a.a. 837-1142) catalytic domain. Kind of test: In vitro JAK kinase assay (HTRF, phosphorylation of a biotinylated peptide), JAK1. Conditions: ratio of JAK2 IC50 to JAK1 IC50, 1 mM ATP. How it is done: as §1
Test [3] addresses T2, human JAK1 (a.a. 837-1142) catalytic domain (Homo sapiens, UniProt P23458).
T2 construct: human JAK1 (a.a. 837-1142) and JAK2 (a.a. 828-1132); His tag (N); made in house; host or cells: insect cells (baculovirus)
The description is as above. Conditions: 1 mM ATP. How it is done:
as §1

One may read the IC50 as the concentration that gives 50% inhibition. Read a low IC50 as higher potency.

T2 sequence (P23458 849-1154): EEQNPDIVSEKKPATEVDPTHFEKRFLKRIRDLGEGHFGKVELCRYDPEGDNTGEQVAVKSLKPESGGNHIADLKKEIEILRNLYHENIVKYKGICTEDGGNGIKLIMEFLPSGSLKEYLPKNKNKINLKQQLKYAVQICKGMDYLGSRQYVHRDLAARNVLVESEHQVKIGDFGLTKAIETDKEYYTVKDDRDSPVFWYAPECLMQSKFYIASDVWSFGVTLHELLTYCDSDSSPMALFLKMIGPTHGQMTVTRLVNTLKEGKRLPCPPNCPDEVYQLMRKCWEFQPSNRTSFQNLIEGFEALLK
T1 sequence (O60674 828-1132): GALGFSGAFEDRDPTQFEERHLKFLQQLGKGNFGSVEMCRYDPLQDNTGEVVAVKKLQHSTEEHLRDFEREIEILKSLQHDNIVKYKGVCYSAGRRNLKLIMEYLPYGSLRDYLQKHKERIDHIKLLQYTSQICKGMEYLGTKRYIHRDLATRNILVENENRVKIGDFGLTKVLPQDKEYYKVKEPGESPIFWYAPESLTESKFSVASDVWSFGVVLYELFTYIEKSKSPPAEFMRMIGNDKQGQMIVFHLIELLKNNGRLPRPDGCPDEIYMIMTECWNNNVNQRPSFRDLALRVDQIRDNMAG

“{cis-3-(4-{[4-(2-hydroxyethyl)-6-(trifluoromethyl)pyridin-2-yl]amino}piperidin-1-yl)-1-[4-(7H-pyrrolo[2,3-d]pyrimidin-4-yl)-1H-pyrazol-1-yl]cyclobutyl}acetonitrile and {trans-3-(4-{[4-(2-hydroxyethyl)-6-(trifluoromethyl)pyridin-2-yl]amino}piperidin-1-yl)-1-[4-(7H-pyrrolo[2,3-d]pyrimidin-4-yl)-1H-pyrazol-1-yl]cyclobutyl}acetonitrile [Example 38]”: the IC50 in test [1] is 20 to 150 nM; in test [3] it was < 20 nM. Also, the JAK2/JAK1 in test [2] was >10.

On to `N#CC[C@]1(n2cc(-c3ncnc4[nH]ccc34)cn2)C[C@H](N2CCC(Nc3cc(CN4CC5(COC5)C4)cc(C(F)(F)F)n3)CC2)C1` [Example 46, {trans-3-(4-{[4-(2-oxa-6-azaspiro[3.3]hept-6-ylmethyl)-6-(trifluoromethyl)pyridin-2-yl]amino}piperidin-1-yl)-1-[4-(7H-pyrrolo[2,3-d]pyrimidin-4-yl)-1H-pyrazol-1-yl]cyclobutyl}acetonitrile], for which the IC50 is 20 to 150 nM in test [1] and < 20 nM in test [3]. In test [2], the JAK2/JAK1 is >10.

Regarding `N#CC[C@]1(n2cc(-c3ncnc4[nH]ccc34)cn2)C[C@H](N2CCC(Oc3cc(CN(CCO)CCO)cc(C(F)(F)F)n3)CC2)C1` [Example 16, {trans-3-(4-{[4-{[bis(2-hydroxyethyl)amino]methyl}-6-(trifluoromethyl)pyridin-2-yl]oxy}piperidin-1-yl)-1-[4-(7H-pyrrolo[2,3-d]pyrimidin-4-yl)-1H-pyrazol-1-yl]cyclobutyl}acetonitrile], the IC50 in test [1] was 20 to 150 nM; in test [3], < 20 nM. Also, in test [2], the JAK2/JAK1 was >10.

As for `N#CC[C@]1(n2cc(-c3ncnc4[nH]ccc34)cn2)C[C@H](N2CCC(Oc3cc(CNC4CCOCC4)cc(C(F)(F)F)n3)CC2)C1` [Example 5, [trans-1-[4-(7H-pyrrolo[2,3-d]pyrimidin-4-yl)-1H-pyrazol-1-yl]-3-(4-{[4-[(tetrahydro-2H-pyran-4-ylamino)methyl]-6-(trifluoromethyl)pyridin-2-yl]oxy}piperidin-1-yl)cyclobutyl]acetonitrile], the values for the IC50 in test [1] and in test [3] were 20 to 150 nM and < 20 nM, respectively. Besides, the JAK2/JAK1 in test [2] was >10.

Regarding `N#CC[C@]1(n2cc(-c3ncnc4[nH]ccc34)cn2)C[C@H](N2CCC(Oc3cc(CCO)cc(C(F)(F)F)n3)CC2)C1` [Example 20, {trans-3-(4-{[4-(2-hydroxyethyl)-6-(trifluoromethyl)pyridin-2-yl]oxy}piperidin-1-yl)-1-[4-(7H-pyrrolo[2,3-d]pyrimidin-4-yl)-1H-pyrazol-1-yl]cyclobutyl}acetonitrile], the figures for the IC50 in test [1] and in test [3] were 20 to 150 nM and < 20 nM, respectively. For the same compound, in test [2], the JAK2/JAK1 is given as >10.

`COCCNCc1cc(OC2CCN([C@H]3C[C@](CC#N)(n4cc(-c5ncnc6[nH]ccc56)cn4)C3)CC2)nc(C(F)(F)F)c1` [Example 3, {trans-3-(4-{[4-{[(2-methoxyethyl)amino]methyl}-6-(trifluoromethyl)pyridin-2-yl]oxy}piperidin-1-yl)-1-[4-(7H-pyrrolo[2,3-d]pyrimidin-4-yl)-1H-pyrazol-1-yl]cyclobutyl}acetonitrile]: the IC50 in test [1] is 20 to 150 nM; in test [3], < 20 nM. The JAK2/JAK1 in test [2] was >10.

Turning to `N#CC[C@]1(n2cc(-c3ncnc4[nH]ccc34)cn2)C[C@H](N2CCC(Nc3cc(CO)nc(C(F)(F)F)n3)CC2)C1` [Example 27, {trans-3-(4-{[6-(hydroxymethyl)-2-(trifluoromethyl)pyrimidin-4-yl]amino}piperidin-1-yl)-1-[4-(7H-pyrrolo[2,3-d]pyrimidin-4-yl)-1H-pyrazol-1-yl]cyclobutyl}acetonitrile], the IC50 in test [1] is 20 to 150 nM; in test [3], < 20 nM. For the same compound, the JAK2/JAK1 in test [2] was >10.

The values are drawn from US9193733B2, “Piperidinylcyclobutyl substituted pyrrolopyridine and pyrrolopyrimidine derivatives as JAK inhibitors” (Incyte Corporation, priority 2012, dated 2015).
